Test [1] concerns bone marrow-derived macrophages (BMDMs). Description: Real-time imaging for cell death (propidium iodide incorporation, IncuCyte). Format: cell-based, mouse. As to conditions: WT BMDMs; stimuli alone or combined; 48 hours (FIG. 1, FIG. 2). As for the experimental part: (§1) Bone Marrow-Derived Macrophages (BMDMs). Primary mouse BMDMs from wild-type and indicated mutant mice were grown for 6 days in Iscove's Modified Dulbecco's Medium (IMDM; Thermo Fisher Scientific) supplemented with 10% Fetal Bovine Serum (Biowest), 30% L929-conditioned media, 1% non-essential amino acids (Thermo Fisher Scientific) and 1% penicillin and streptomycin (Thermo Fisher Scientific). BMDMs at a density of 1×10^6 cells/well in 12-well plates or 5×10^5 cells/well in 24-well plates were seeded into growth media overnight before use.
(§2) Cell Stimulation. BMDMs were stimulated with the following PAMPs, DAMPs and inhibitors alone or in combinations where indicated: 50 μM Hemin (heme; Sigma-Aldrich), 0.75 μg/mL Pam3CSK4 (Pam3; InvivoGen), 15 ng/mL ultrapure lipopolysaccharide (LPS) from E. coli 0111:B4 (InvivoGen), 500 ng/ml R848 (InvivoGen), 100 ng/mL TNF-α (Peprotech), 1 μg/mL poly(I:C) (Invivogen), 200 ng/mL monosodium urate crystals (Invivogen), 200 ng/mL recombinant mouse S100A8/S100A9 heterodimer (bio-techne), 200 ng/mL recombinant mouse HMGB1 (Abcam), 25 μM Z-VAD(OMe)-FMK (zVAD; Cayman Chemical) and 45 μM Necrostatin 2 racemate (Nec-1; Selleckchem).
(§3) Real-Time Imaging for Cell Death. The kinetics of cell death were monitored using the IncuCyte S3 or SX5 (Sartorius) live-cell analysis system. BMDMs (5×10^5 cells/well) were seeded in 24-well tissue culture plates and were treated with the indicated stimuli. Cell death was measured by propidium iodide (PI; Life Technologies) incorporation following the manufacturer's protocol. The plate was scanned for the indicated time durations where fluorescent and phase-contrast images were acquired in real-time every 1 hour. PI-positive dead cells are marked with a red mask and were quantified using the software package supplied with the IncuCyte imager.

Test [2] concerns heme plus Pam3-treated BMDMs. Description: Inhibitor effect on heme plus Pam3-induced cell death in BMDMs. Format: cell-based, mouse. As to the method:
as §1, §2, §3

Peptide text beside a SMILES is read from it. * marks the point of attachment. Cbz = O=C(OCc1ccccc1)*; CH2F = FC*

With “polyinosinic:polycytidylic acid [poly(I:C)]”, in test [1], the cell death entry is “Minimal cell death”.

In the case of `C=CC1=C(C)c2cc3[n-]c(cc4[n-]c(cc5nc(cc1n2)C(C)=C5C=C)c(C)c4CCC(=O)O)c(CCC(=O)O)c3C.[Cl-].[Fe+3]` [heme, ferriprotoporphyrin IX chloride], the cell death result in test [1] is “did not induce cell death”.

Turning to `COC(=O)C[C@H](NC(=O)[C@H](C)NC(=O)[C@@H](NC(=O)OCc1ccccc1)C(C)C)C(=O)CF` [zVAD, Z-VAD(OMe)-FMK] (Cbz-Val-Ala-Asp(OMe)-CH2F), the “effect on cell death” value in test [2] (WT BMDMs, heme plus Pam3, combination of Nec-1 with zVAD) is “further reduced the cell death”.

Regarding `CC(C)(O)c1coc(S(=O)(=O)NC(=O)Nc2c3c(cc4c2CCC4)CCC3)c1` [MCC950], in test [2] (heme plus Pam3-treated BMDMs, MCC950), the “effect on cell death” value was “did not prevent cell death”.

With `CN1C(=O)NC(Cc2c[nH]c3c(Cl)cccc23)C1=O` (racemic) [Nec-1, Necrostatin 2 racemate], the “effect on cell death” value in test [2] (WT BMDMs, heme plus Pam3, Nec-1 alone, compared to PBS control) was “partially reduced cell death”.

Take lipopolysaccharide [LPS]: in test [1], the cell death result is listed as “Minimal cell death”.

Consider Pam3CSK4, for which, in test [1], the cell death entry is “Minimal cell death”.

`O=c1[nH]c(=O)c2[nH]c([O-])nc2[nH]1.[Na+]` [MSU, monosodium urate]: in test [1], the cell death result was “did not induce cell death”.

B1: S100A8/A9: recombinant mouse S100A8/S100A9 heterodimer, a DAMP (protein, UniProt P27005 2-89; P31725 2-113, looked up)
Protein S100-A8: PSELEKALSNLIDVYHNYSNIQGNHHALYKNDFKKMVTTECPQFVQNINIENLFRELDINSDNAINFEEFLAMVIKVGVASHKDSHKE
Protein S100-A9: ANKAPSQMERSITTIIDTFHQYSRKEGHPDTLSKKEFRQMVEAQLATFMKKEKRNEALINDIMEDLDTNQDNQLSFEECMMLMAKLIFACHEKLHENNPRGHGHSHGKGCGK
In the case of B1, in test [1], the cell death entry is listed as “did not induce cell death”.

B2: high-mobility group box 1 protein (protein, UniProt P63158 1-215, looked up)
High mobility group protein B1: MGKGDPKKPRGKMSSYAFFVQTCREEHKKKHPDASVNFSEFSKKCSERWKTMSAKEKGKFEDMAKADKARYEREMKTYIPPKGETKKKFKDPNAPKRPPSAFFLFCSEYRPKIKGEHPGLSIGDVAKKLGEMWNNTAADDKQPYEKKAAKLKEKYEKDIAAYRAKGKPDAAKKGVVKAEKSKKKKEEEDDEEDEEDEEEEEEEEDEDEEEDDDDE
notes: recombinant mouse HMGB1, a DAMP
Turning to B2, in test [1], the cell death entry is reported as “did not induce cell death”.
